Reference: US7718846B2, “Animal models of long QT syndrome and uses thereof” (priority 2005, dated 2010)

Columns and labels:
IKs = details: experimental models in dogs; cited from earlier work
α1-adrenoreceptors = details: cited from earlier work
α1-adrenoreceptor = details: infusion, patient with LQTS; cited from earlier work
[1] = test system: rabbit left ventricular wedge preparation; details: 100 μM
Protocol: Shown are floating microelectrode recordings from an M cell in the subendocardial region of the wedge preparation and an ECG recorded across the bath.
Rabbits weighing 2.5 3.5 kg may be anticoagulated with heparin and anesthetized with pentobarbital (30-35 mg/kg, i.v.). Transmural wedges with dimensions of approximately 2×1.5×0.9 cm to 3×2×1.5 cm may be dissected from the left ventricle. The tissue may be cannulated via a small (diameter ˜100 μm) native branch of the left descending coronary artery and perfused with cardioplegic solution. Unperfused tissue may be carefully removed using a razor blade. […] A transmural ECG may be recorded using electrodes consisting of AgCl half cells attached to Tyrode's-filled tapered polyethylene electrodes which will be placed in the Tyrode's solution bathing the preparation, 1.0 to 1.5 cm from the epicardial and endocardial surfaces of the preparation, along the same vector as the transmembrane recordings. […] Transmembrane action potentials may be simultaneously recorded from epicardial, M, and endocardial sites using three to four separate intracellular floating microelectrodes (DC resistance: 10 to 20 MΩ) filled with 2.7 M KCl and connected to a high-input impedance amplifier. […]

WT rabbits = details: Carlsson rabbit model; cited from earlier work
LQT2 = details: cited from earlier work
IKr = details: E4031 0.5 μM; cited from earlier work

**Q.** With `CCS(=O)(=O)N(C)[C@H]1c2cc(C#N)ccc2OC(C)(C)[C@@H]1O` (racemic) [chromanol 293B] as the molecule, how does the “TdP, spontaneous or in response to program stimulation” value (IKs) read?
**A.** never produced TdP

**Q.** What does the source list for `COc1ccc(OC)c(C(O)C(C)N)c1` (centres unmarked) [methoxamine]?
**A.** APD90 in tissues from the M region (α1-adrenoreceptors; canine wedge preparations): abbreviation of APD90; APD90 in Purkinje fibers (α1-adrenoreceptors; canine): dose- and rate-dependent prolongation of APD90; QTc (α1-adrenoreceptor): prolong the QTc

**Q.** Which results are given for `CC(C)NC[C@@H](O)c1ccc(NS(C)(=O)=O)cc1` [d-sotalol]?
**A.** Action potential duration at 90% repolarization (APD90) [1]: 427 ms; QT interval [1]: 467 ms

**Q.** With `CC(C)NCC(O)COc1cccc2ccccc12` (centres unmarked) [propranolol] as the molecule, how does the “suppression of arrhythmias by pretreatment” value (WT rabbits) read?
**A.** suppressing the arrhythmias

**Q.** Which “suppression of arrhythmias by pretreatment” value (WT rabbits) does the source give for `COc1cc2nc(N3CCN(C(=O)c4ccco4)CC3)nc(N)c2cc1OC` [prazosin] here?
**A.** as effective as pretreatment with propranolol in suppressing the arrhythmias

**Q.** For `CC(C)NCC(O)c1ccc(O)c(O)c1` (centres unmarked) [isoproterenol], which “duration of transient increase in TDR” value (LQT2) is on record?
**A.** less than 2 minutes

**Q.** Which APD (IKr) does the source give for `Cc1cccc(CCN2CCC(C(=O)c3ccc(NS(C)(=O)=O)cc3)CC2)n1` [E4031, Benzenesulfonamide E-4031] here?
**A.** > 1 s

**Q.** And the “apex-to-base dispersion of repolarization” value (IKr)?
**A.** marked enhancement of the apex-to-base dispersion of repolarization with reversal of repolarization
